From paper PMC6410202, “Dual Action of the PN159/KLAL/MAP Peptide: Increase of Drug Penetration across Caco-2 Intestinal Barrier Model by Modulation of Tight Junctions and Plasma Membrane Permeability” (Pharmaceutics, 2019)

Assays:
[1] = test system: Caco-2 cells; test: Cellular uptake of Bodipy FL labeled PN159, confocal microscopy; assay type: cell-based, human; conditions: Bodipy FL labeled PN159, 10 µM, 5 min, claudin-4 immunostaining
Procedure: The Caco-2 cells were grown on glass bottomed petri dishes coated with collagen to visualize the cellular uptake of the Bodipy FL maleimide labeled (BODIPY FL N-(2-aminoethyl) maleimide, Thermo Fischer, Waltham, MA, USA) PN159 peptide. The cells were treated with peptide at concentrations of 1, 3 and 10 µM for 5 min. To stain the cell nuclei the H33342dye (1 μg/mL) was used before peptide treatment for 10 min. After peptide incubation the living cells were washed three times with Ringer–Hepes buffer supplemented with 1%fetal bovine serum (FBS) and examined immediately with a Visitron spinning disk confocal system.
In the case of the co-localization analysis the labeled PN159 peptide was used in 10 µM for 5 min. Then the cellular uptake cells were fixed and immunohistochemistry was performed for claudin-4. The samples were mounted and visualized by a Leica TCS SP5 confocal laser-scanning microscope.

[2] = test system: Enterobacter cloacae spp. cloacae (ATCC 13047); test: microbe, parasite or virus in culture; conditions: Muller–Hinton broth, 18 h
Procedure: (§1) The MIC of PN159 on the 6 sensitive and resistant ESKAPE pathogenic strains was determined in cation-adjusted Muller–Hinton broth. […] Minimum inhibitory concentrations (MICs) were determined by using a standard serial broth dilution technique. Briefly, 11-step serial dilutions were prepared in 96-well microtiter plates with three biological replicates per strain. Pathogens were inoculated into each well at a density of 5×10^5 bacteria/mL, and the plates were incubated at 37 °C. Plates were shaken at 300 rpm during incubation for 18 h. Cell growth was monitored by measuring the optical density (OD600 value, Synergy 2 microplate reader BioTek Instruments Inc, Winooski, VT, USA). […] As reference compounds we tested the antimicrobial activity of three bactericidal drugs with different modes of action.

[3] = test system: Pseudomonas aeruginosa (ATCC 27853); test: microbe, parasite or virus in culture; conditions: Muller–Hinton broth, 18 h
Procedure: as §1

[4] = test system: Caco-2 epithelial cells; test: MTT assay, Caco-2 cell viability; assay type: cell-based, human; conditions: 1-h treatment
Procedure: The human Caco-2 intestinal epithelial cell line was purchased from ATCC (cat.no. HTB-37). Caco-2 cells were grown in DMEM/HAM’s F-12 culture medium with stable glutamine (Life Technologies, Gibco, Carlsbad, CA, USA) supplemented with 10% fetal bovine serum (Life Technologies, Gibco, Carlsbad, CA, USA and 50 μg/mL gentamycin in a humidified incubator with 5% CO2 at 37 °C. All plastic surfaces were coated with 0.05% rat tail collagen in sterile distilled water before cell seeding.
The PN159 peptide stock solution (5 mM) was prepared freshly in sterile DMSO. Treatment solutions were further diluted in Ringer-Hepes (150 mM NaCl, 6 mM NaHCO3, 5.2 mM KCl, 2.2 mM CaCl2, 0.2 mM MgCl2, 2.8 mM D-glucose, 5 mM Hepes; pH 7.4) or cell culture medium. Final concentrations of the peptide in treatment solutions were as follows: 1, 3, 10, 30 and 100 µM for cell viability assays; 1, 3, 10 and 30 µM for the barrier integrity assays and 10 µM for the recovery measurements.
For the cell viability assays Caco-2 epithelial cells were seeded to 96-well plates at the density of 6 × 10^3 cells/well (Orange Scientific) and cultured for 3-5 days. Confluent cultures were treated with PN159 peptide (1, 3, 10, 30 and 100 μM) in phenol red free DMEM (Life Technologies, Gibco, Carlsbad, CA, USA) for 1-h. This viability assay was performed at three different time points: (i) immediately after the 1-h treatment, (ii) at one-day recovery, (iii) at one-week recovery. To determine 100% toxicity, cells were incubated with 1 mg/mL Triton X-100 detergent. After treatment the medium was changed and 0.5 mg/mL MTT (3-(4,5-dimethyltiazol-2-yl)-2,5-diphenyltetrazolium bromide) solution was added to the cells for 3 h. During the incubation cells were kept in a CO2 incubator. The metabolic activity of cells is reflected by the conversion of the yellow MTT dye to purple formazan. Formazan crystals were dissolved in DMSO and the amount of converted dye was determined by measuring absorbance at 595 nm wavelength with a microplate reader (Fluostar Optima, BMG Labtechnologies, Ortenberg, Germany). Cell viability and/or metabolic activity was calculated as percentage of dye conversion by non-treated cells.

[5] = test system: Caco-2 cells; test: Immunostaining of junctional proteins and F-actin; assay type: cell-based, human; conditions: 1 h
Procedure: Morphological changes in interepithelial junctions after treatment with different concentrations of CPPs (100 μM) and PN159 peptide (1, 3, 10, 30 and 100 μM) were followed by immunostaining for claudin-1 integral membrane tight junction protein, β-catenin and zonula occludens protein-1 (ZO-1) cytoplasmic linker proteins. F-actin was stained by fluorescently labeled phalloidin. Treatments lasted for 1 h. After peptide treatment cell layers were washed with PBS and fixed with a 1:1 mixture of ice cold acetone and methanol for 2 min. Cells were blocked with 3% bovine serum albumin in PBS and incubated with primary antibodies mouse anti-claudin-1 and -4, rabbit anti-ZO-1 and rabbit anti-β-catenin (Life Technologies, Carlsbad, CA, USA) overnight. Fluorescent Atto 647N-phalloidin (ATTO-TEC GmbH, Germany) lasted for 1 h. Incubation with Alexa Fluor-488-labeled anti-mouse and anti-rabbit secondary antibodies (Life Technologies, Invitrogen, USA) lasted for 1 h. Bis-benzimide dye (Hoechst 33342) was used to stain cell nuclei. After mounting (Fluoromount-G; Southern Biotech, Birmingham, AL, USA) the samples staining was visualized by a Leica TCS SP5 confocal laser scanning microscope (Leica Microsystems GmbH, Wetzlar, Germany) and Visitron spinning disk confocal system (Visitron Systems GmbH, Puchheim, Germany).

[6] = test system: claudin-1; design: method as in PMID 26869428; conditions: affinity measurements; cited from earlier work
[7] = test system: respiratory epithelial tissue (EpiAirway model); design: method as in PMID 16625659; conditions: 1-h treatment; cited from earlier work
[8] = test system: Caco-2 epithelial cells; test: Ethidium homodimer-1 staining, cell membrane integrity; assay type: cell-based, human; conditions: PN159 1 to 10 μM, 24-h treatments
Procedure: Besides the junctional effects, changes in the cell membrane integrity were also examined by ethidium homodimer-1 (856.77 Da) staining of Caco-2 epithelial cells after 24-h treatments in the concentration range of 1 to 10 μM.
Figure 7 (A) Fluorescent staining of juntional protein zonula occludens-1 and double staining of cell nuclei in Caco-2 cells after 1-h treatment with PN159 peptide. Green color: immunostaining for ZO-1. Red color: staining by ethidium homodimer-1 (EH-1), indicating increased membrane permeability.Blue color: staining of all cell nuclei by H33342. Bar = 10 µm. (B) Confocal microscopy images of living Caco-2 epithelial cells incubated with Bodipy FL labeled PN159 peptide in different concentrations for 5 min at 37°C. Green color: BodipyFL-PN159 peptide. Blue color: staining of cell nuclei. Bar = 10 µm.

In the case of `CC(C)C[C@H](NC(=O)[C@H](C)NC(=O)[C@H](CCCCN)NC(=O)[C@H](CC(C)C)NC(=O)[C@H](C)NC(=O)[C@H](CC(C)C)NC(=O)[C@H](CCCCN)NC(=O)[C@H](CC(C)C)NC(=O)[C@H](C)NC(=O)[C@H](CC(C)C)NC(=O)[C@@H](N)CCCCN)C(=O)N[C@@H](CCCCN)C(=O)N[C@@H](C)C(=O)N[C@@H](C)C(=O)N[C@@H](CC(C)C)C(=O)N[C@@H](CCCCN)C(=O)N[C@@H](CC(C)C)C(=O)N[C@@H](C)C(N)=O` [PN159], the “Co-localization with claudin-4” value [1] is reported as “visible in the cytoplasm and also in the cell membrane at the level of intercellular junctions”, the MIC [2] is reported as 31.0 µM and the MIC [3] is reported as 46.4 µM. For the same molecule, the “Non-toxic concentration (MTT and impedance)” value ([4]; Caco-2) was at most 10 µM, the “Toxicity (MTT and impedance)” value ([4]; PN159 30 μM) was “reversible” and the “Toxicity (MTT and impedance)” value ([4]; PN159 100 μM) was “toxic”. For the same molecule, the “Reversibility of cytotoxic effect (MTT)” value ([4]; PN159 100 μM, 1-day or 1-week recovery) was “not reversible after one day or even one week”, the “Cell viability (MTT)” value ([4]; PN159 1–10 μM, Caco-2) was “did not decrease cell viability” and the “Cell viability (MTT)” value ([4]; PN159 30 and 100 μM, Caco-2) was “cell damage”. For the same molecule, the “Junctional and cell morphology (claudin-1, ZO-1, β-catenin, F-actin)” value ([5]; PN159 1 μM) was “slight effect on cell morphology”, the “Junctional and cell morphology (claudin-1, ZO-1, β-catenin, F-actin)” value ([5]; PN159 10 μM) was “drastic change in actin cytoskeleton and epithelial junctional morphology” and the Binding [6] was “in the micromolar range”. The “Safe concentration (MTT)” value [7] was “up to 100 μM” and the “Plasma membrane entry of ethidium homodimer-1” value [8] was “Only the highest PN159 concentration caused plasma membrane entry of the red fluorescent dye”.
